From PubChem BioAssay AID463229 (Broad Institute, 2010)
Several values for one entry are separate records, joined by “and”; a condition that tells them apart may be missing. Identical values can stand only once. Activity calls are given as the source filed them.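 Rule for the calls: active = compounds raising the signal whose fitted half-maximal concentration is at or below their top tested dose (cut at about 25 µM in these data); inconclusive = flat fit at 30 to 70% activity, or a poor fit; inactive = the rest.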

Tested on: INS-1E rat beta cells, no cytokines, CellTiter-Glo ATP, 48 h
Assay: ATP level change in INS-1E without cytokines, dose response, counter-screen for beta-cell apoptosis protection project, INS-1E rat cells, ATP luminescence, cherry pick (AID 463229)

Compound | AC50
O=C(Nc1cc(S(=O)(=O)Nc2ccc(Cl)cc2)ccc1N1CCCCC1)c1ccc(F)cc1 | 7.6 µM
CCCCCCCC(=O)Nc1ccc(C(=O)N/N=C/c2cccc([N+](=O)[O-])c2)cc1 | 6.63 µM
Cc1c(C(C)C)c(=O)n(-c2ccc(S(=O)(=O)NCc3ccccc3)cc2)n1C | 3.71 µM
COc1cc(NC(=O)COc2cc(O)c3c(c2)OC(C)(C)CC3=O)cc(OC)c1OC | 6.45 µM
COc1cccc(/C=N/Nc2cc(N3CCOCC3)ncn2)c1O | 14.2 µM
CN1c2ccccc2N(C)C1(C)c1ccccc1 | 0.604 µM
N=c1c2c(ncn1CCCO)Oc1ccc3ccccc3c1C2c1ccccc1 (centres undefined) | > 26 µM (inactive)
O=C(/C(N=Nc1cccc([N+](=O)[O-])c1)=C(/O)c1ccc(Br)cc1)C(F)(F)F | 6.66 µM
CC(C)(C)C1C/C(=C/c2ccccn2)C(=O)/C(=C/c2ccccn2)C1 (centres undefined) | 0.672 µM
O=C(Nc1nc(-c2ccccn2)cs1)c1cccc(-n2cnnn2)c1 | 7.05 µM
O=C(CCCc1nc(-c2ccc(Cl)cc2)no1)NC1CCCC1 | 13.5 µM
O=C(NNc1ccccc1Br)C(O)(c1cccc(C(F)(F)F)c1)c1cccc(C(F)(F)F)c1 | 7.06 µM
COCCCNC(=O)Cn1nnc(-c2ccc(NC(=O)c3cccnc3)cc2)n1 | 5.3 µM
COc1ccc(-c2nn(-c3ccccc3)cc2C(=O)OCC(=O)c2ccc(C)c([N+](=O)[O-])c2)cc1 | 0.866 µM
Cc1ccc(NC(=O)COc2ccc(N(C)C(=O)C(C)(C)C)cc2)cc1S(=O)(=O)N1CCCCC1 | 5.78 µM
Oc1[nH]c2ccc(Br)cc2c1N=NC(=S)N1CCOCC1 | 2.39 µM
COc1ccccc1N1C(C)=CC(=C(C#N)c2nc3ccccc3s2)C=C1C | 8.66 µM
CCCCC(=O)NC(c1ccc(N(C)C)cc1)c1ccc2cccnc2c1O (centres undefined) | 1.6 µM
CC(C)(C)n1ncc2c(=O)n(Cc3cccc(Cn4cnc5c(cnn5C(C)(C)C)c4=O)c3F)cnc21 | 4.32 µM
O=C(N/N=C/c1ccc([N+](=O)[O-])o1)c1ccc(O)cc1 | 7.45 µM
COc1ccc(C(C)NCCC(c2ccc(OC(C)C)cc2)c2ccccc2OC)cc1 (centres undefined) | 7.99 µM
Cc1ccc(-c2cn(-c3ccccc3)c3[n+]2CCCS3)cc1 | 1.97 µM and 2.98 µM
Oc1[nH]c(N=C2N=c3ccccc3=N2)c2ccccc12 | 3.44 µM
COc1ccc(/C(C)=N/NC(=O)c2cccc(S(=O)(=O)N3CCCC3)c2)c(O)c1 | 3.8 µM
Cc1ccc(/C=N/NC(=O)c2c(-c3ccccc3)noc2C)c(O)c1 | 7.91 µM
Cc1ccc(NS(=O)(=O)c2ccc(NC(=O)CN(c3cc([N+](=O)[O-])ccc3C)S(C)(=O)=O)cc2)c(C)c1 | 1.86 µM
CCc1ccc2[nH]c3nc(N/N=C/c4ccc(O)cc4O)nnc3c2c1 | 21.2 µM

Compound | AC50
CCCCCCCCn1c2c(c(=N)c3c1CCC3)CCCC2 | < 0.195 µM
CCN(CC)S(=O)(=O)c1ccc(N2CCN(c3ccccc3OC)CC2)c(N)c1 | 5.19 µM
CC1=C(C)/C(=N\OS(=O)(=O)c2ccc(C)cc2)C=CC1=O | 4.47 µM
CN1CCN(C(c2ccc(C(F)(F)F)cc2)c2ccc3cccnc3c2O)CC1 (centres undefined) | 4.56 µM
Cc1ccc(S(=O)(=O)Nc2ccc(NC(=O)Nc3cccc(C(F)(F)F)c3)cc2)cc1 | 11.9 µM
Cc1nnc2ccc(Oc3ccc(-c4ccccc4)cc3)nn12 | 8.92 µM
CCN(CC)CCCNC1=C(Cl)C(=O)c2ccccc2C1=O | 13.1 µM
C=CCc1cccc(/C=N/NC(=O)c2ccc3nc[nH]c3c2)c1O | 6.52 µM
CC(NC(=O)c1cc(COc2ccc3ncccc3c2)on1)c1ccc(F)cc1 (centres undefined) | 5.86 µM
Cc1onc(-c2ccccc2)c1C(=O)NC(=S)NNC(=O)c1ccc(O)cc1O | 0.657 µM
CC1CCC(C(C)C)C(OC(=O)Cn2c(-c3ccccc3)[n+](C)c3ccccc32)C1 (centres undefined) | 2.76 µM and 3.37 µM
Cn1nnnc1N=N/C(=N/Nc1ccccc1)c1ccccc1 | 4.36 µM
CC(C)Oc1ccc(S(=O)(=O)N2CCCCC2)cc1NC(=O)CN1CCCC1c1cccs1 (centres undefined) | 6.59 µM
c1ccc2c(c1)OCC(CNc1ncnc3sccc13)O2 (centres undefined) | 1.6 µM
CC1(C)CC(N2CCN(c3ccccc3)CC2)=CC(=[N+]2CCCC2)C1 | 1.79 µM
O=C(Nc1cccc(Cl)c1)Nc1nnc(CSCCOc2ccc(Cl)cc2)s1 | 5.39 µM
O=C(NCc1cccnc1)c1ccc(NC(=O)c2ccc([N+](=O)[O-])cc2)cc1 | 0.215 µM
Cc1cc(C(=O)N/N=C/c2cc(Br)cc(Br)c2OC(=O)c2cccc(F)c2)n[nH]1 | 4.79 µM
COc1ccc(N=Nc2ccc(O)c3ncccc23)cc1 | 4.26 µM
CCCCCCCCCCCCn1ccc(=N)cc1 | 0.515 µM
CCOC(=O)c1sc(NC(=O)Nc2cccc(Cl)c2)cc1C | 7.53 µM
Cc1cc(N)c2cc(NC(=O)/C=C/c3ccccc3Cl)ccc2n1 | 14.2 µM
Cc1nc2ccc(NC(=O)c3cc(S(=O)(=O)N(C)c4ccccc4)ccc3Cl)cc2s1 | 2.8 µM
COc1cc(NC(=O)c2cc3ccccc3cc2O)c(OC)cc1Cl | 4.68 µM
CCCCCc1cc(=O)oc2c(C(CCN(CC)CC)c3ccc(OC)cc3)c(OC)cc(OC)c12 (centres undefined) | 14 µM
CC1CCN(Cc2c(C(=O)N/N=C/c3cc(Cl)ccc3O)nnn2-c2nonc2N)CC1 | 2.08 µM
Cc1ccc(NC2=C(N3CCCCC3)C(=O)c3ccccc3C2=O)cc1 | 1.9 µM
